Test results taken from US8188078B2 (Sanofi-Aventis, priority 2007, dated 2012).

Experiments:
MET = target: T1, MET (Homo sapiens, UniProt P08581); experiment: Test C: inhibition of the autophosphorylation of MET, ELISA technique (pppY1230, 1234, 1235), MKN45 cells; type: cell-based
T1 construct: endogenous in cells; host or cells: MKN45 cells
Summary of the method: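 MKN45 cells adhered 24 h, then treated 1 h with compound at 6 concentrations in duplicate, final range 10000 to 30 nM. Lysates assayed by phospho-MET (pY1230/1234/1235) sandwich ELISA with HRP chromogen read at 450 nm.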

RON = RON (Homo sapiens, UniProt Q04912); experiment: Test B: HTRF RON test in 96-well format; type: biochemical
Summary of the method: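 RON 5 nM pre-incubated 30 min at RT with compound (0.17 nM–10 μM final, 3% DMSO) in MOPS 10 mM pH 7, DTT, Tween 20. Reaction with biotinylated poly-(GAT) 1 μg/ml, ATP 10 μM, MgCl2 5 mM, 30 min RT. Eu-anti-pTyr/streptavidin-XL665 HTRF, 665/620 ratio gives % inhibition, IC50.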

Sequence of RON (Q04912 25-1400): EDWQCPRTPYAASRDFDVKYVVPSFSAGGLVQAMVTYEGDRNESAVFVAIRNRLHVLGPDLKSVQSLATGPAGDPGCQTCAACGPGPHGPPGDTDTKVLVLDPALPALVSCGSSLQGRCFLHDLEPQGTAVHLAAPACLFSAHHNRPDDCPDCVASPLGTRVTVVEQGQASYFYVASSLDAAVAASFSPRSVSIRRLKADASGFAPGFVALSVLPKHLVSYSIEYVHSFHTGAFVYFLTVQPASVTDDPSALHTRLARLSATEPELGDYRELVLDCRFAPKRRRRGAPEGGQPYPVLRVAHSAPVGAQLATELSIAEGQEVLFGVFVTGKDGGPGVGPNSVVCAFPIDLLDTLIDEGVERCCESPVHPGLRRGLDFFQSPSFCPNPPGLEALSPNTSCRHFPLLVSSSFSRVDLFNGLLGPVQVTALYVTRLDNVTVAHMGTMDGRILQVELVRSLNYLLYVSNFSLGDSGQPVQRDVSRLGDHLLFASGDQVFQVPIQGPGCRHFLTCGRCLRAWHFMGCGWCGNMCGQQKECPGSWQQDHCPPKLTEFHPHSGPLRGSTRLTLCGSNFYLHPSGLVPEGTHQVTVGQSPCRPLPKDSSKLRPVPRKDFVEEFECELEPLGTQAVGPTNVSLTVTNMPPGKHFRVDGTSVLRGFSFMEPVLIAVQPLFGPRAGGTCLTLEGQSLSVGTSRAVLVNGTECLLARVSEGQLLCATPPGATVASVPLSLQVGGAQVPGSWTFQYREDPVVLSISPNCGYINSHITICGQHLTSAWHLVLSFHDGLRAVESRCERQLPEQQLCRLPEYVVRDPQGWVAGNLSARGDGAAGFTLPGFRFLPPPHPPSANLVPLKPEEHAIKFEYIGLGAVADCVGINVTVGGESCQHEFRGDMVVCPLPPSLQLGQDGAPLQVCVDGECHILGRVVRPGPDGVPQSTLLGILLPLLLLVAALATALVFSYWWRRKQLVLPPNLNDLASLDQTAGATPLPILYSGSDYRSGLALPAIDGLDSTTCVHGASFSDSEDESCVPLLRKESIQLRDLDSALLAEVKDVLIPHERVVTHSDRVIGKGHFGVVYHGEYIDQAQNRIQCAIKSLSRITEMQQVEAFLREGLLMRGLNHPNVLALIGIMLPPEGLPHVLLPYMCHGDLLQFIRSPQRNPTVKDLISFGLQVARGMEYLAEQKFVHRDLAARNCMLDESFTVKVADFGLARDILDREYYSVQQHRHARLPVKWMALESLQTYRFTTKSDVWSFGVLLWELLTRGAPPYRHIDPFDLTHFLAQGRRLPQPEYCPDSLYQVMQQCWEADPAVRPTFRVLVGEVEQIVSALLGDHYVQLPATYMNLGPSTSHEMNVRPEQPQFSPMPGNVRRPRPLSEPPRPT
T1 sequence (P08581 25-1390): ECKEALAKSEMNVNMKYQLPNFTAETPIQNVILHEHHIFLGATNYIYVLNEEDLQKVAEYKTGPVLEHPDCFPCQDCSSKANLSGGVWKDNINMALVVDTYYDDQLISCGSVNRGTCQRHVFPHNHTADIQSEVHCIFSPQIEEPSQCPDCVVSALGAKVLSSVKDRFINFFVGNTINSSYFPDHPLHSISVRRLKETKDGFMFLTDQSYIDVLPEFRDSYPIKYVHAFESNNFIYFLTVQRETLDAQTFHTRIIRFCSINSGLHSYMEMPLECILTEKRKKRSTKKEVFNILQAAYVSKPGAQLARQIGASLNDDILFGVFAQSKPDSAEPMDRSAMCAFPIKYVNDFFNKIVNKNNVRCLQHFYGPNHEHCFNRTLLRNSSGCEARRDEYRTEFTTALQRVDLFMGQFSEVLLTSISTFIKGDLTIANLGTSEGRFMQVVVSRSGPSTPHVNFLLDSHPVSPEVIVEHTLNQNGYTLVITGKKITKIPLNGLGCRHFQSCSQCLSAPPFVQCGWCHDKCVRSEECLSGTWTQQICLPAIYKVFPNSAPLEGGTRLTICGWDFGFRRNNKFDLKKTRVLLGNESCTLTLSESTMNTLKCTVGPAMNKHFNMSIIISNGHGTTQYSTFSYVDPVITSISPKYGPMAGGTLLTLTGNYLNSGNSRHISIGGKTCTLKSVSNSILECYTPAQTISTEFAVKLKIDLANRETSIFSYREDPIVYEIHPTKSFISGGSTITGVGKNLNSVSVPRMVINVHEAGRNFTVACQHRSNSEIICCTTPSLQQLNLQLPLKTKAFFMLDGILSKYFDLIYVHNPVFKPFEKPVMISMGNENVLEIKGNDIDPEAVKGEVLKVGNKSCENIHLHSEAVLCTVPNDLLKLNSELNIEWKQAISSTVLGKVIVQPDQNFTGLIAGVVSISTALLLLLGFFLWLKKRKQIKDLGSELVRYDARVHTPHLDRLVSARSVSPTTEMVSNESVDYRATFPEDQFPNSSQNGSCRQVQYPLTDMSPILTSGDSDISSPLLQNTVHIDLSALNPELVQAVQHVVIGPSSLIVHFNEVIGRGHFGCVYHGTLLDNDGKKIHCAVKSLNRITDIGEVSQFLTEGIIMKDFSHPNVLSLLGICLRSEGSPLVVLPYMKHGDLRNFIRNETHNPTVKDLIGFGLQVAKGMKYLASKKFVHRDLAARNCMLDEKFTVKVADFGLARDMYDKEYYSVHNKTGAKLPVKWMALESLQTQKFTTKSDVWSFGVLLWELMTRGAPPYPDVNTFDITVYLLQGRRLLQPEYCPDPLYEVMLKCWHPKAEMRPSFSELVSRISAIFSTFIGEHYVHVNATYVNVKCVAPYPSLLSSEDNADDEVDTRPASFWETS

Compound	IC50 (MET) [nM]	IC50 (RON) [nM]	melting point [°C]
CC(Oc1cc2sc(NC(=O)NCCN3CCN(C)CC3)nc2cc1F)c1c(Cl)ccc(F)c1Cl (single isomer, unassigned) [Example 76, 1-{6-[(1R*)-1-(2,6-dichloro-3-fluorophenyl)ethoxy]-5-fluoro-1,3-benzothiazol-2-yl}-3-[2-(4-methylpiperazin-1-yl)ethyl]urea]	< 500	< 500	
CC(Oc1cc2sc(NC(=O)NCCN3CCN(C)CC3)nc2cc1F)c1c(Cl)ccc(F)c1Cl (single isomer, unassigned) [Example 77, 1-{6-[(1S*)-1-(2,6-dichloro-3-fluorophenyl)ethoxy]-5-fluoro-1,3-benzothiazol-2-yl}-3-[2-(4-methylpiperazin-1-yl)ethyl]urea]	500 to 10000	500 to 10000	
CC(Oc1cc2[nH]c(NC(=O)NCCN3CCOCC3)nc2cc1F)c1c(Cl)ccc(F)c1Cl (stereo not drawn) [Example 6, 1-{6-[1-(2,6-dichloro-3-fluorophenyl)ethoxy]-5-fluoro-1H-benzimidazol-2-yl}-3-(2-morpholin-4-ylethyl)urea]	< 500	< 500	190 to 192
O=C(Nc1nc2ccc(OCc3c(Cl)cccc3Cl)cc2[nH]1)C1CC1 [Example 7, N-{6-[(2,6-dichlorobenzyl)oxy]-1H-benzimidazol-2-yl}cyclopropane carboxamide]	500 to 10000	500 to 10000	133 to 135
CC(Oc1cc2sc(NC(=O)NCCN3CCN(C)CC3)nc2cc1F)c1c(Cl)ccc(F)c1Cl (stereo not drawn) [Example 75, 1-{6-[1-(2,6-dichloro-3-fluorophenyl)ethoxy]-5-fluoro-1,3-benzothiazol-2-yl}-3-[2-(4-methylpiperazin-1-yl)ethyl]urea]	< 500	< 500	131 to 134
CC(Oc1cc2sc(NC(=O)NCCCN3CCCC3=O)nc2cc1F)c1c(Cl)ccc(F)c1Cl (stereo not drawn) [Example 78, 1-{6-[1-(2,6-dichloro-3-fluorophenyl)ethoxy]-5-fluoro-1,3-benzothiazol-2-yl}-3-[3-(2-oxopyrrolidin-1-yl)propyl]urea]	< 500	< 500	191 to 195
CC(Oc1cc2sc(NC(=O)NCCC3CCCN3C)nc2cc1F)c1c(Cl)ccc(F)c1Cl (stereo not drawn) [Example 79, 1-{6-[1-(2,6-dichloro-3-fluorophenyl)ethoxy]-5-fluoro-1,3-benzothiazol-2-yl}-3-[2-(1-methylpyrrolidin-2-yl)ethyl]urea]	< 500	< 500	78 to 89
CC(Oc1cc2sc(NC(=O)NCCN(C)C(=O)OC(C)(C)C)nc2cc1F)c1c(Cl)ccc(F)c1Cl (stereo not drawn) [Example 95]	500 to 10000	500 to 10000	

Now from value to compound:

IC50 (MET) [nM]	IC50 (RON) [nM]	melting point [°C]	Compound
< 500	< 500		CC(Oc1cc2sc(NC(=O)NCCN3CCCC3)nc2cc1F)c1c(Cl)ccc(F)c1Cl (single isomer, unassigned) [Example 85, 1-{6-[(1R*)-1-(2,6-dichloro-3-fluorophenyl)ethoxy]-5-fluoro-1,3-benzothiazol-2-yl}-3-[2-(pyrrolidin-1-yl)ethyl]urea]
< 500	500 to 10000		CC(Oc1cc2sc(NC(=O)NCCN)nc2cc1F)c1c(Cl)ccc(F)c1Cl (single isomer, unassigned) [Example 89, 1-(2-aminoethyl)-3-{6-[(1R*)-1-(2,6-dichloro-3-fluorophenyl)ethoxy]-5-fluoro-1,3-benzothiazol-2-yl}urea]
< 500	< 500	176 to 179	COCCNC(=O)Nc1nc2cc(F)c(OC(C)c3c(Cl)ccc(F)c3Cl)cc2s1 (stereo not drawn) [Example 81, 1-{6-[1-(2,6-dichloro-3-fluorophenyl)ethoxy]-5-fluoro-1,3-benzothiazol-2-yl}-3-(2-methoxyethyl)urea]
< 500	500 to 10000	74 to 83	CCN(CC)CCNC(=O)Nc1nc2ccc(OC(C)c3c(Cl)ccc(F)c3Cl)cc2s1 (stereo not drawn) [Example 82, 1-{6-[1-(2,6-dichloro-3-fluorophenyl)ethoxy]-1,3-benzothiazol-2-yl}-3-[2-(diethylamino)ethyl]urea]
< 500	500 to 10000		CCN(CC)CCCNC(=O)Nc1nc2ccc(OC(C)c3c(Cl)ccc(F)c3Cl)cc2s1 (stereo not drawn) [Example 83, 1-{6-[1-(2,6-dichloro-3-fluorophenyl)ethoxy]-1,3-benzothiazol-2-yl}-3-[3-(diethylamino)propyl]urea]
< 500	500 to 10000	178 to 190	CC(Oc1cc2sc(NC(=O)NCCN3CCCC3)nc2cc1F)c1c(Cl)ccc(F)c1Cl (stereo not drawn) [Example 84, 1-{6-[1-(2,6-dichloro-3-fluorophenyl)ethoxy]-5-fluoro-1,3-benzothiazol-2-yl}-3-[2-(pyrrolidin-1-yl)ethyl]urea]
< 500	500 to 10000	178	CC(Oc1cc2sc(NC(=O)NCCN)nc2cc1F)c1c(Cl)ccc(F)c1Cl (stereo not drawn) [Example 88, 1-(2-aminoethyl)-3-{6-[1-(2,6-dichloro-3-fluorophenyl)ethoxy]-5-fluoro-1,3-benzothiazol-2-yl}urea]
500 to 10000	500 to 10000	142 to 146	CC(Oc1cc2sc(NC(=O)NCCN(C)Cc3ccccc3)nc2cc1F)c1c(Cl)ccc(F)c1Cl (stereo not drawn) [Example 94, 1-{2-[benzyl(methyl)amino]ethyl}-3-{6-[1-(2,6-dichloro-3-fluorophenyl)ethoxy]-5-fluoro-1,3-benzothiazol-2-yl}urea]
< 500	< 500	173 to 188	CNCCNC(=O)Nc1nc2cc(F)c(OC(C)c3c(Cl)ccc(F)c3Cl)cc2s1 (stereo not drawn) [Example 96, 1-{6-[1-(2,6-dichloro-3-fluorophenyl)ethoxy]-5-fluoro-1,3-benzothiazol-2-yl}-3-[2-(methylamino)ethyl]urea]
500 to 10000	500 to 10000	170	CC(Oc1cc2sc(NC(=O)NCCOCc3ccccc3)nc2cc1F)c1c(Cl)ccc(F)c1Cl (stereo not drawn) [Example 97, 1-[2-(benzyloxy)ethyl]-3-{6-[1-(2,6-dichloro-3-fluorophenyl)ethoxy]-5-fluoro-1,3-benzothiazol-2-yl}urea]
< 500	< 500	198	CC(Oc1cc2sc(NC(=O)NCCO)nc2cc1F)c1c(Cl)ccc(F)c1Cl (stereo not drawn) [Example 98, 1-{6-[1-(2,6-dichloro-3-fluorophenyl)ethoxy]-5-fluoro-1,3-benzothiazol-2-yl}-3-(2-hydroxyethyl)urea]
